In US20030129672A1, “Method for identifying metalloenzyme inhibitors” (priority 2001, published 2003):
pIC50, pKd: −log10 of the molar value. Read-outs that look alike come from different tables or passages of the source.

Legend:
Format in all cases: biochemical
MMP-13CD = MMP-13CD (Homo sapiens, UniProt P45452); assay: Fluorigenic peptide-1 substrate based assay with and without acetohydroxamic acid, MMP-13CD; settings: for pIC50: MMP-13CD, FP1 substrate
Description: 50 mM HEPES buffer (pH 7.0)
2% DMSO (with or without inhibitor test compound)
Alternatively, an endpoint read can also be used to determine reaction velocity provided the initial fluorescence of the solution, as recorded before addition of enzyme, is subtracted from the final fluorescence of the reaction mixture. […] This determination was done for experiments done in the presence, and experiments done in the absence, of acetohydroxamic acid. Data were fit to the equation: […]

MMP-2 [1] = biological target: T1, MMP-2 (Homo sapiens, UniProt P08253); assay: Steady-state kinetics of the mechanism of inhibition of MMP-2 (FIG. 1); settings: 6 concentrations from 0 nanomolar to 600 nanomolar, 1/V0 versus 1/[S]
T1 sequence (P08253 110-660): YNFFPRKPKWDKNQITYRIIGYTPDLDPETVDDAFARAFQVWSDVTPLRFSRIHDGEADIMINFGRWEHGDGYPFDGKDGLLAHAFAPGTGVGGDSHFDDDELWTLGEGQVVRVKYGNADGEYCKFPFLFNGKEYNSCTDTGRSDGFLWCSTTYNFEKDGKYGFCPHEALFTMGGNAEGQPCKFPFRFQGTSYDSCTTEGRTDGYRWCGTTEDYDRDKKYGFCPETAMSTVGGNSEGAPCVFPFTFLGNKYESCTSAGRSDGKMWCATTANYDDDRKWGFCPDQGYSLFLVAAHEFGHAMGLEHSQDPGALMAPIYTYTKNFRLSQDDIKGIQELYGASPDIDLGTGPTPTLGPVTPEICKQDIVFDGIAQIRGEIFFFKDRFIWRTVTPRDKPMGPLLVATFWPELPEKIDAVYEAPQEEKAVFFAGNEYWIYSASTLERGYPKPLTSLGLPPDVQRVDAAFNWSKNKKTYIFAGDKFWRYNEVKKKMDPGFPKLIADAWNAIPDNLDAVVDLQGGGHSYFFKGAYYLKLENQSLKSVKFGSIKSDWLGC
Description: FIG. 1 is a graph that plots 1 over the initial velocity VO, which is the initial rate of product formation in a steady state kinetics assay, on the Y-axis versus 1 over concentration of substrate [S] used in the assay on the X-axis for inhibition of MMP-2 with N-[(3-phenylisoxazol-5-ylmethyl)-aminothiocarbonyl]-benzamide at 6 concentrations of from 0 nanomolar to 600 nanomolar.
In FIG. 1, 1 over the initial velocity VO, which is the initial rate of product formation in a steady state kinetics assay, is plotted on the Y-axis versus 1 over concentration of substrate [S] used in the assay on the X-axis for inhibition of MMP-2 with N-[(3-phenylisoxazol-5-ylmethyl)-aminothiocarbonyl]-benzamide at 6 concentrations of from 0 nanomolar to 600 nanomolar.

MMP-2 [2] = biological target: T1, MMP-2; assay: Fluorigenic peptide-1 substrate based assay with and without acetohydroxamic acid, MMP-2; settings: MMP 2FL, FP1 substrate
MMP-9 = MMP-9 (Homo sapiens, UniProt P14780); assay: Fluorigenic peptide-1 substrate based assay with and without acetohydroxamic acid, MMP-9; settings: MMP 9FL, FP1 substrate
Chain of MMP-9 (P14780 94-707, species assumed): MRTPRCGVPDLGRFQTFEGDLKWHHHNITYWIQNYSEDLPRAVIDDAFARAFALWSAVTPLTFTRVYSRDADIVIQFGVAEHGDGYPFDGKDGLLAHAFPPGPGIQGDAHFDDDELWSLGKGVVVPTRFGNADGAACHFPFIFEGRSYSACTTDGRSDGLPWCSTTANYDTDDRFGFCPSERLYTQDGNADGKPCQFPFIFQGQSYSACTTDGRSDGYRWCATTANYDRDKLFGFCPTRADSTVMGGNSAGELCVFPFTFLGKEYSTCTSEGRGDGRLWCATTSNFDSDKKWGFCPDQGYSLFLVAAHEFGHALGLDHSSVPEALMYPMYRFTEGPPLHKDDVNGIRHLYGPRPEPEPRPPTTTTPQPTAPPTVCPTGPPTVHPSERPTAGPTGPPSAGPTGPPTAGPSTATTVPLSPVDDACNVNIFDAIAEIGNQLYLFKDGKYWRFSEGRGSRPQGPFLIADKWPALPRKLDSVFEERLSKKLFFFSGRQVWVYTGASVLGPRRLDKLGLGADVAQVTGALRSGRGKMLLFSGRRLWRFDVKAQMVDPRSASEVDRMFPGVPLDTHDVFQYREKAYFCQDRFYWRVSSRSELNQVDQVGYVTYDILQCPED

[3] = 0 mM acetohydroxamic acid, read-out: Without AcNHOH IC50
[4] = 15 mM acetohydroxamic acid (1 Kd), read-out: With AcNHOH IC50
[5] = about 1 Kd of acetohydroxamic acid, read-out: With AcNHOH IC50
[6] = no acetohydroxamic acid, read-out: Without AcNHOH IC50

Row | SMILES | pIC50 (MMP-13CD; [3]) | pIC50 (MMP-13CD; [4]) | other results
1 | Nc1ccc(-c2ccc(S(N)(=O)=O)cc2)cc1 [Entry 1] | 4.47 | 4.80 | –
2 | NS(=O)(=O)c1ccc(-c2ccc([N+](=O)O)cc2)cc1 [Entry 2] | 4.08 | 5.51 | –
3 | COc1ccc(NC(=O)Nc2ccc3nc(C)cc(N)c3c2)cc1 [Entry 3] | 3.90 | 4.15 | –
4 | Cc1cc(O)nc(SCc2ccc(Cl)cc2)n1 [Entry 4] | 4.19 | 5.33 | –
5 | O=C(NC(=S)NCc1cc(-c2ccccc2)no1)c1ccccc1 [N-[(3-phenylisoxazol-5-ylmethyl)-aminothiocarbonyl]-benzamide] | – | – | Mechanism of inhibition of MMP-2 by steady-state kinetics (MMP-2 [1]): uncompetitive inhibitor; pIC50 (MMP-2 [2]; [5]): 7.05; pIC50 (MMP-2 [2]; [6]): 6.05; pIC50 (MMP-9; [5]): 5.92; pIC50 (MMP-9; [6]): 5.51
6 | CC(=O)NO [acetohydroxamic acid, reference compound] | – | – | pKd (MMP-13CD): 1.82

The remaining compounds from weak to strong by pIC50 (MMP-13CD; [3]), led by results:

Row | pIC50 (MMP-13CD; [3]) | pIC50 (MMP-13CD; [4]) | SMILES | other results
7 | 4.57 | 4.96 | COc1ccc(C(=O)NCc2cccnc2)cc1C(=O)NCc1cccnc1 [Entry 7] | –
8 | 4.77 | 4.85 | CCOC(=O)/C=C/c1ccc(-n2ccnc2)cc1 [Entry 6] | –
9 | 5.02 | 4.96 | Cc1c(-c2ccc(-n3ccnc3)cc2)[nH][nH]c1=O [Entry 5] | –
